Test results taken from US20130096119A1, “Isoquinolin-3-Ylurea Derivatives” (priority 2010, published 2013).
≈ marks a conversion by molar mass, not a printed value.

test system: S. pneumoniae ATCC 49619; experiment: Minimal inhibitory concentration (MIC) by microdilution method (CLSI M7-A7); format: cell-based, Streptococcus pneumoniae; conditions: Streptococcus pneumoniae, ATCC49619, cation-adjusted Mueller-Hinton Broth supplemented with 3% (v/v) lysed horse blood
Protocol: Minimal inhibitory concentrations (MICs; mg/l) were determined in cation-adjusted Mueller-Hinton Broth (supplemented with 3% (v/v) lysed horse blood for testing Streptococcus pneumoniae) by a microdilution method following the description given in “Methods for Dilution Antimicrobial Susceptibility Tests for Bacteria that Grow Aerobically”, Approved standard, 7th ed., Clinical and Laboratory Standards Institute (CLSI) Document M7-A7, Wayne, Pa., USA, 2006.

SMILES	MIC
CCNC(=O)Nc1cc2c(-c3cccc(O)c3)ccc(C)c2cn1 [Example 68, 1-ethyl-3-[5-(3-hydroxy-phenyl)-8-methyl-isoquinolin-3-yl]-urea]	4 µg/mL (≈ 12.4 µM)
CCNC(=O)Nc1cc2cc(-c3ccc(C(C)=O)cc3)cc(C)c2cn1 [Example 108, 1-[6-(4-acetyl-phenyl)-8-methyl-isoquinolin-3-yl]-3-ethyl-urea]	0.5 µg/mL (≈ 1.44 µM)
CCNC(=O)Nc1cc2c(F)c(NCc3ccccc3)cc(-c3cnc(OC)nc3)c2cn1 [Example 110, 1-[6-benzylamino-5-fluoro-8-(2-methoxy-pyrimidin-5-yl)-isoquinolin-3-yl]-3-ethyl-urea]	1 µg/mL (≈ 2.24 µM)
CCNC(=O)Nc1cc2cc(-c3cccc(OC)c3)cc(C)c2cn1 [Example 76, 1-ethyl-3-[6-(3-methoxy-phenyl)-8-methyl-isoquinolin-3-yl]-urea]	1 µg/mL (≈ 2.98 µM)
CCNC(=O)Nc1cc2cc(NC(=O)c3ccc(N(C)C)cc3)cc(C)c2cn1 [Example 121, 4-dimethylamino-N-[3-(3-ethyl-ureido)-8-methyl-isoquinolin-6-yl]-benzamide]	0.25 µg/mL (≈ 0.639 µM)
CCNC(=O)Nc1cc2cc(-c3ccc(S(N)(=O)=O)cc3)cc(C)c2cn1 [Example 38, 4-[3-(3-ethyl-ureido)-8-methyl-isoquinolin-6-yl]-benzenesulfonamide]	1 µg/mL (≈ 2.6 µM)
CCNC(=O)Nc1cc2cc(-c3ccc(OC)nc3)cc(C)c2cn1 [Example 89, 1-ethyl-3-[6-(6-methoxy-pyridin-3-yl)-8-methyl-isoquinolin-3-yl]-urea]	0.5 µg/mL (≈ 1.49 µM)

The remaining lines, values ahead:

MIC	SMILES
4 µg/mL (≈ 12.9 µM)	CCNC(=O)Nc1cc2cccc(Cn3ccnc3C)c2cn1 [Example 297, 1-ethyl-3-[8-(2-methyl-imidazol-1-ylmethyl)-isoquinolin-3-yl]-urea]
8 µg/mL (≈ 20.4 µM)	CCNC(=O)Nc1cc2cc(NCc3cccc(C(=O)OC)c3)cc(C)c2cn1 [Example 126, 3-{[3-(3-ethyl-ureido)-8-methyl-isoquinolin-6-ylamino]-methyl}-benzoic acid methyl ester]
4 µg/mL (≈ 13 µM)	CCNC(=O)Nc1cc2cccc(Nc3ccccn3)c2cn1 [Example 146, 1-ethyl-3-[8-(pyridin-2-ylamino)-isoquinolin-3-yl]-urea]
8 µg/mL (≈ 23.6 µM)	CCNC(=O)Nc1cc2cccc(CNc3cc(C)nn3C)c2cn1 [Example 191, 1-{8-[(2,5-dimethyl-2H-pyrazol-3-ylamino)-methyl]-isoquinolin-3-yl}-3-ethyl-urea]
8 µg/mL (≈ 23.7 µM)	CCNC(=O)Nc1cc2cccc(Nc3ccc(OC)cn3)c2cn1 [Example 181, 1-ethyl-3-[8-(5-methoxy-pyridin-2-ylamino)-isoquinolin-3-yl]-urea]
0.25 µg/mL (≈ 0.55 µM)	CCNC(=O)Nc1cc2c(-c3ccnc(C)c3)ccc(Nc3cccc(C(=O)NC)c3)c2cn1 [Example 247, 3-[3-(3-ethyl-ureido)-5-(2-methyl-pyridin-4-yl)-isoquinolin-8-ylamino]-N-methyl-benzamide]
16 µg/mL	CCNC(=O)Nc1cc2cc(NCc3ccc4cc[nH]c4c3)cc(C)c2cn1.Cl [Example 134, 1-ethyl-3-{6-[(1H-indol-6-ylmethyl)-amino]-8-methyl-isoquinolin-3-yl}-urea hydrochloride]
2 µg/mL (≈ 4.65 µM)	CCNC(=O)Nc1cc2c(F)c(NCc3ccccc3)cc(Nc3cccnc3)c2cn1 [Example 240, 1-[6-benzylamino-5-fluoro-8-(pyridin-3-ylamino)-isoquinolin-3-yl]-3-ethyl-urea]
8 µg/mL	CCNC(=O)Nc1cc2cccc(CNc3ccc(OC)nc3)c2cn1.Cl [Example 302, 1-ethyl-3-{8-[(6-methoxy-pyridin-3-ylamino)-methyl]-isoquinolin-3-yl}-urea hydrochloride]
4 µg/mL	CCNC(=O)Nc1cc2cccc(Nc3ccc(CC(=O)N(C)C)cc3)c2cn1.Cl [Example 206, 2-{4-[3-(3-ethyl-ureido)-isoquinolin-8-ylamino]phenyl}-N,N-dimethyl-acetamide hydrochloride]
0.5 µg/mL (≈ 1.24 µM)	CCNC(=O)Nc1cc2c(F)c(-c3ccc(S(N)(=O)=O)cc3)cc(C)c2cn1 [Example 144, 4-[3-(3-ethyl-ureido)-5-fluoro-8-methyl-isoquinolin-6-yl]-benzenesulfonamide]
